Experimental data taken from patent publication US9062070B2, “Inhibitors of the renal outer medullary potassium channel” (Merck Sharp & Dohme Corp., priority 2011, dated 2015).

Experiments:
Kir1.1 (ROMK1) = Kir1.1 (ROMK1) (Homo sapiens (Human), UniProt P48048); test: Electrophysiology Assay (whole cell voltage clamp, IonWorks Quattro); type: cell-based; conditions: Chinese hamster ovary cells stably expressing Kir1.1; block during voltage step to 0 mV
Method: Block of Kir1.1 (ROMK1) currents was examined by whole cell voltage clamp (Hamill et. al. […] Prior to an experiment, Kir1.1 expression was induced by overnight incubation with 1 mM sodium butyrate. […] After centrifugation, the cell pellet was resuspended in approximately 4.0 mL of bath solution and placed in the IonWorks instrument. The intracellular solution consisted of (in mM): 80 K gluconate, 40 KCl, 20 KF, 3.2 MgCl2, 3 EGTA, 5 Hepes, pH 7.4. […] Amphotericin B (Sigma A-4888) was prepared as a 40 mg/mL solution in DMSO. Voltage protocols and current recordings were performed using the IonWorks HT software/hardware system. […] No correction for liquid junction potentials was used. The test pulse, consisting of a 100 ms step to 0 mV from a holding potential of −70 mV, followed by a 100 ms voltage ramp from −70 mV to +70 mV, was applied before and after a 6 min compound incubation period. Test compounds were prepared by diluting DMSO stock solutions into the bath solution at 3× the final concentration and placed in the instrument in 96-well polypropylene plates. Current amplitudes were measured using the IonWorks software. To assess compound potency, the fractional block during the voltage step to 0 mV was calculated in Microsoft Excel (Microsoft, Redmond, Calif.), and dose-response curves were fitted with Igor Pro 4.0 (WaveMetrics, Lake Oswego, Oreg.).

hROMK (hKir1.1) = hROMK (hKir1.1) (Homo sapiens (Human), UniProt P48048); test: Thallium Flux Assay (ROMK channel functional thallium flux, FLIPR-Tetra); type: cell-based; conditions: HEK293 cells stably expressing hROMK (hKir1.1)
Sequence of hROMK (hKir1.1) (P48048 whole entry): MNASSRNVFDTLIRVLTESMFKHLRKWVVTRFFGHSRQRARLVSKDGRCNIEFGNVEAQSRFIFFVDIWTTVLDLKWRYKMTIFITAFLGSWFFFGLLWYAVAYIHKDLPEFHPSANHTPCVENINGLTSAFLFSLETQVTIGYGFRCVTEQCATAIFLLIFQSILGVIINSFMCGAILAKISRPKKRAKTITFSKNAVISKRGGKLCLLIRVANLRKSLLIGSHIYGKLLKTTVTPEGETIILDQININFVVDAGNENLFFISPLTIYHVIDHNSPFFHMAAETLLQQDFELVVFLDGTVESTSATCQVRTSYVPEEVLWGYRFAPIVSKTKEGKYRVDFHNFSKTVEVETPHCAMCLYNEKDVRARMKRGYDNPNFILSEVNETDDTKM
Method: HEK293 cells stably expressing hROMK (hKir1.1) were grown at 37° C. in a 10% CO2 humidified incubator in complete growth media: Dulbecco's Modified Eagle Medium supplemented with non-essential amino acids, Penicillin/Streptomycin/Glutamine, G418 and FBS. At >80% confluency, aspirate the media from the flask and rinse with 10 mL Calcium/Magnesium-free PBS. Add 5 mL of 1× trypsin (prepared in Ca/Mg Free PBS) to T-225 flask and return flask to 37° C./CO2 incubator for 2-3 minutes. To dislodge the cell, gently bang the side of the flask with your hand. Triturate the cells completely and then transfer the cells to 25 mL complete media. Centrifuge at 1,500 rpm for 6 min followed by resuspension in complete growth media and determine cell concentration. For typical re-seeding, 4E6 cells/T-225 flask will attain>80% confluency in 4 days. Under ideal growth conditions and appropriate tissue culture practices, this cell line is stable for 40-45 passages.
• FluxOR™ Reagent (Component A) • FluxOR™ Assay Buffer (Component B)—10× Concentrate • PowerLoad™ Concentrate (Component C)—100× Concentrate • Probenecid (Component D)—Lyophilized sample is kept at −20° C. Water soluble, 100× after solubilization in 1 mL water. Store at 4° C. • FluxOR™ Chloride-free Buffer (Component E)—5× Concentrate • Potassium sulfate (K2SO4) Concentrate (Component F)—125 mM in water. Store at 4° C. • Thallium sulfate (Tl2SO4) Concentrate (Component G)—50 mM in water. Store at 4° C. • DMSO (dimethyl sulfoxide, Component H)—1 mL (100%) Reagent Preparation: FluxOR Working Solutions • 1000× FluxOR™ Reagent: Reconstitute a vial of component A in 100 μl DMSO; Mix well; Store 10 μl aliquots at −20° C. • 1× FluxOR™ Assay Buffer: Dilute Component B 10-fold with water; Adjust pH to 7.4 with Hepes/NaOH; Filter and store at 4° C. • Probenecid/Assay Buffer: 100 mL of 1× FluxOR™ Assay Buffer; 1 mL of reconstituted component D; Store at 4° C. • Loading Buffer (per microplate): 10 μl 1000× FluxOR™ Reagent; 100 μl component C; 10 mL Probenecid/Assay Buffer • Compound Buffer (per microplate): 20 mL Probenecid/Assay Buffer; 0.3 mM ouabain (10 mM ouabain in water can be stored in amber bottle/aluminum foil at room temperature); Test compound • 1× FluxOR™ Chloride-Free Buffer: Prepare 1× working solution in water. Can be stored at room temperature • Stimulant Buffer (prepared at 5× final concentration in 1× FluxOR™ Chloride-Free Buffer): 7.5 mM Thallium sulfate and 0.75 mM Potassium sulfate (to give a final assay concentration of 3 mM Thallium/0.3 mM Potassium). Store at 4° C. when not in use. If kept sterile, this solution is good for months. Assay Protocol—
The ROMK channel functional thallium flux assay is performed in 384 wells, using the FLIPR-Tetra instrument. HEK-hKir1.1 cells are seeded in Poly-D-Lysine microplates and kept in a 37° C.-10% CO2 incubator overnight. On the day of the experiment, the growth media is replaced with the FluxOR™ reagent loading buffer and incubated, protected from light, at ambient temperature (23-25° C.) for 90 min. The loading buffer is replaced with assay buffer±test compound followed by 30 min incubation at ambient temperature, where the Thallium/Potassium stimulant is added to the microplate.
• 1. Seed HEK-hKir1.1 cells (50 μl at 20,000 cells/well) in 384-well PDL coated Microplates • 2. Allow cells to adhere overnight in humidified 37° C./10% CO2 incubator • 3. Completely remove cell growth media from microplate and replace with 25 μl loading buffer • 4. Incubate Microplate at room temperature, protected form light, for 90 min • 5. Remove loading buffer and replace with 25 μl 1× Assay Buffer±test compound. • 6. Incubate microplate at room temperature, protected form light, for 30 min • 7. At FLIPR-Tetra 384: Add stimulant (Thallium/Potassium) solution to microplate and monitor fluorescence. Excitation=400 nm, Emission=460 & 580 nm. Collect data for ˜10 min. Data Calculation—

Sequence of Kir1.1 (ROMK1) (P48048 whole entry): as above

## COc1cc(F)c([C@H]2CN3CCN(C(=O)C4CCc5nc(-n6cnnn6)ccc54)C[C@@H]3CO2)cc1C#N (stereo partly shown) [Example 77]
Kir1.1 (ROMK1)
  IC50: 290 nM
hROMK (hKir1.1)
  IC50: 400 nM

## N#Cc1cc([C@@H]2CN3CCN(C(=O)C4CCc5nc(-n6cnnn6)ncc54)C[C@H]3CO2)ccc1F (stereo partly shown) [Example 79]
Kir1.1 (ROMK1)
  IC50: 190 nM
hROMK (hKir1.1)
  IC50: 210 nM

## N#Cc1cc([C@@H]2CN3CCN(C(=O)C4CCc5nc(-n6cnnn6)ncc54)C[C@@H]3CO2)ccc1F (stereo partly shown) [Example 80]
Kir1.1 (ROMK1)
  IC50: 120 nM
hROMK (hKir1.1)
  IC50: 260 nM

## N#Cc1c(F)ccc([C@@H]2CN3CCN(C(=O)C4CCc5nc(-n6cnnn6)ncc54)C[C@@H]3CO2)c1Cl (stereo partly shown) [Example 81]
Kir1.1 (ROMK1)
  IC50: 60 nM
hROMK (hKir1.1)
  IC50: 170 nM

## N#Cc1c(F)ccc([C@@H]2CN3CCN(C(=O)C4CCc5nc(-n6cnnn6)ncc54)C[C@@H]3CO2)c1Cl (stereo partly shown) [Example 82]
Kir1.1 (ROMK1)
  IC50: 50 nM
hROMK (hKir1.1)
  IC50: 140 nM

## N#Cc1c(F)ccc([C@H]2CN3CCN(C(=O)C4CCc5nc(-n6cnnn6)ncc54)C[C@@H]3CO2)c1Cl (stereo partly shown) [Example 83]
Kir1.1 (ROMK1)
  IC50: 80 nM
hROMK (hKir1.1)
  IC50: 360 nM

## Cc1c([C@@H]2CN3CCN(C(=O)C4CCc5cc(-n6cnnn6)cnc54)C[C@@H]3CO2)ccc(F)c1C#N (stereo partly shown) [Example 91]
Kir1.1 (ROMK1)
  IC50: 140 nM
hROMK (hKir1.1)
  IC50: 550 nM

## Cc1c([C@H]2CN3CCN(C(=O)C4CCc5cc(-n6cnnn6)ncc54)C[C@H]3CO2)ccc(C#N)c1F (stereo partly shown) [Example 93]
Kir1.1 (ROMK1)
  IC50: 180 nM
hROMK (hKir1.1)
  IC50: 430 nM

## Cc1c([C@H]2CN3CCN(C(=O)C4CCc5cc(-n6cnnn6)ncc54)C[C@H]3CN2)ccc(F)c1C#N (stereo partly shown) [Example 97]
Kir1.1 (ROMK1)
  IC50: 90 nM
hROMK (hKir1.1)
  IC50: 160 nM

## Cc1c([C@@H]2CN3CCN(C(=O)C4CCc5nc(-n6cnnn6)ccc54)C[C@H]3CN2)ccc(F)c1C#N (stereo partly shown) [Example 98]
Kir1.1 (ROMK1)
  IC50: 170 nM
hROMK (hKir1.1)
  IC50: 390 nM

## Cc1c([C@@H]2CN3CCN(C(=O)C4CCc5cc(-n6cnnn6)cnc54)C[C@H]3CN2)ccc(F)c1C#N (stereo partly shown) [Example 99]
Kir1.1 (ROMK1)
  IC50: 350 nM
hROMK (hKir1.1)
  IC50: 430 nM

## Cc1c([C@@H]2CN3CCN(C(=O)C4CCc5cc(-n6cnnn6)cnc54)C[C@H]3CN2)ccc(F)c1C#N (stereo partly shown) [Example 100]
Kir1.1 (ROMK1)
  IC50: 280 nM
hROMK (hKir1.1)
  IC50: 750 nM

## Cc1c([C@H]2CN3CCN(C(=O)C4CCc5nc(-n6cnnn6)ncc54)C[C@H]3CN2)ccc(F)c1C#N (stereo partly shown) [Example 102]
Kir1.1 (ROMK1)
  IC50: 100 nM
hROMK (hKir1.1)
  IC50: 450 nM

## Cc1c([C@H]2CN3CCN(C(=O)C4CCc5cc(-n6cnnn6)ncc54)C[C@@H]3CN2)ccc(F)c1C#N (stereo partly shown) [Example 103]
Kir1.1 (ROMK1)
  IC50: 110 nM
hROMK (hKir1.1)
  IC50: 180 nM

## Cc1c([C@H]2CN3CCN(C(=O)C4CCc5cc(-n6cnnn6)ncc54)C[C@@H]3CN2)ccc(F)c1C#N (stereo partly shown) [Example 104]
Kir1.1 (ROMK1)
  IC50: 120 nM
hROMK (hKir1.1)
  IC50: 360 nM

## Cc1c([C@@H]2CN3CCN(C(=O)C4CCc5cc(-n6cnnn6)ncc54)C[C@@H]3CN2)ccc(F)c1C#N (stereo partly shown) [Example 105]
Kir1.1 (ROMK1)
  IC50: 80 nM
hROMK (hKir1.1)
  IC50: 140 nM

## Cc1c([C@@H]2CN3CCN(C(=O)C4CCc5cc(-n6cnnn6)ncc54)C[C@@H]3CN2)ccc(F)c1C#N (stereo partly shown) [Example 106]
Kir1.1 (ROMK1)
  IC50: 120 nM
hROMK (hKir1.1)
  IC50: 400 nM
